Experiment: gradient 5% acetonitrile 3 min, to 50% in 2 min, to 85% in 15 min, held 3 min, 100 µL/min
Conditions: column: Zorbax Extend-C18 2.1 x 50 mm; eluents: water / acetonitrile, 0.1% formic acid
Method in brief: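 Retention times come from adduct peaks that were picked computationally and then checked by hand. The standards, pure and pooled in mixtures of ~100 molecules, were run on a Zorbax Extend-C18 column (2.1 × 50 mm, 1.8 μm) at 100 μL/min with water and acetonitrile, each with 0.1% formic acid. Detection was by quadrupole time-of-flight mass spectrometry in positive and negative ionization mode, with a dead volume of 40 μL and a dwell volume of 900 μL.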

## O=C1[C@H]2CN(Cc3cccc(Cl)c3)C[C@H]2C(=O)N1CCN1CCc2ccccc2C1
  RP-LC retention time: 659 s

## CCN1CCN(CCCNC(=O)Cn2c3ccccc3c3cnn(C)c(=O)c32)CC1
  RP-LC retention time: 560 s

## CC(=O)Nc1cccc(N2CC(C(=O)Nc3ccc(C(F)(F)F)cc3)CC2=O)c1 (stereo not given)
  RP-LC retention time: 770 s

## CNC(=O)c1cc(N2CCCC2)nc2ccc(F)cc12
  RP-LC retention time: 591 s

## C=CCNC(=O)Cc1c(C)n(C)c2nc(-c3ccccc3)nn2c1=O
  RP-LC retention time: 663 s

## COc1cc(-c2noc(-c3nc(-c4ccccc4F)no3)n2)cc(OC)c1OC
  RP-LC retention time: 1140 s

## COC(=O)c1ccc(NC(=O)N2CC(N(C3CCOCC3)S(C)(=O)=O)C2)cc1
  RP-LC retention time: 686 s

## CCc1nnc2cc(N3CCN(C(=O)c4ccc(Cl)cc4)CC3)cnn12
  RP-LC retention time: 561 s

## COc1ccc(OC)c(NC(=O)Cn2c(N3CCCC3)nc(C)cc2=O)c1
  RP-LC retention time: 654 s

## CC1CCCN(S(=O)(=O)c2cccc(-c3cn4cc(Cl)ccc4n3)c2)C1 (stereo not given)
  RP-LC retention time: 999 s

## Cc1nn(-c2cc(N3CCOCC3)ncn2)c(C)c1CCC(=O)NCCc1ccco1
  RP-LC retention time: 734 s

## O=C(Nc1ccc(F)cc1F)C1CCc2nc(N3CCOCC3)ncc2C1 (stereo not given)
  RP-LC retention time: 734 s

## O=C(NC1CCCC1)C1CCCN(c2ccc(=O)n(-c3cccc(F)c3)n2)C1 (stereo not given)
  RP-LC retention time: 784 s

## CS(=O)(=O)N1CCC(C(=O)Nc2cccc(Br)c2)Oc2ccccc21 (stereo not given)
  RP-LC retention time: 996 s

## CN(C(=O)CC(=O)Nc1ccc2nc3n(c(=O)c2c1)CCCCC3)c1ccccc1F
  RP-LC retention time: 682 s

## COCCn1ccc2nc(C)c(C(=O)NCc3cccs3)cc2c1=O
  RP-LC retention time: 656 s

## CCn1c(=O)oc2cc(-c3noc(-c4cccc(F)c4)n3)ccc21
  RP-LC retention time: 1110 s

## CCC(=O)NCc1csc(C2CCCN(C(=O)C(C)(C)C)C2)n1 (stereo not given)
  RP-LC retention time: 681 s

## CN1c2ccccc2C(=O)NC12CCN(C(=O)Nc1cccc(Cl)c1)CC2
  RP-LC retention time: 804 s

## CCOc1ccc(CNC2CCN(c3ccc(C(=O)NC4CC4)cn3)C2)cc1 (stereo not given)
  RP-LC retention time: 578 s

## Cc1ccc(Cl)cc1NC(=O)N1CCC(OC2CCN(S(C)(=O)=O)CC2)CC1
  RP-LC retention time: 801 s

## Cc1nc(-c2ccccc2)nn1C1CCN(S(=O)(=O)c2ccccc2C(F)(F)F)C1 (stereo not given)
  RP-LC retention time: 897 s

## COc1ccc(CC(=O)N2CCN(c3ccc(-c4nc(C)cs4)cn3)CC2)cc1OC
  RP-LC retention time: 788 s

## CCn1cc(C)c(C(=O)O)c1CC(=O)N(C)c1ccc(C)c(C)c1
  RP-LC retention time: 1000 s

## CCCCOc1ccc(C(=O)N2CCN(c3cc(C)nc(N4CCOCC4)n3)CC2)cc1
  RP-LC retention time: 720 s

## CCCC(C)C(=O)N1CC2CN(S(=O)(=O)c3ccccc3)CC(C1)O2 (stereo not given)
  RP-LC retention time: 807 s

## CCOc1ccc(-c2nc(C3CC(=O)N(c4ccc(Cl)cc4)C3)no2)cc1OCC (stereo not given)
  RP-LC retention time: 1150 s

## O=C(c1ccc2cc[nH]c2c1)N1CCC2(CC1)N=C(c1ccccc1)NO2
  RP-LC retention time: 770 s

## Cn1cc(C(=O)Nc2ccc3c(c2)OCCO3)c2cccnc21
  RP-LC retention time: 727 s

## COC(=O)c1cccc(N2C=C(C#N)S(=O)(=O)c3ccc(C)cc32)c1
  RP-LC retention time: 881 s

## COc1ccccc1CCC(=O)NC(C)C(=O)Nc1nc2ccccc2[nH]1 (stereo not given)
  RP-LC retention time: 658 s

## COc1ccccc1NC(=O)NC(C)(C)CC(C)(C)C
  RP-LC retention time: 1010 s

## COc1cccc(Cn2c(=O)c3cnc(-c4ccc(C)cc4)nc3n(C)c2=O)c1
  RP-LC retention time: 1250 s

## COc1cc(NC(=O)c2sc(-c3cn(C)c4ncccc34)nc2C)cc(OC)c1
  RP-LC retention time: 764 s

## CCN1CCCn2cc(S(=O)(=O)NCc3cccc(C)c3)cc2C1=O
  RP-LC retention time: 780 s

## O=C(NC1CCN(c2cc(-c3ccc(F)cc3)[nH]n2)C1)c1ccc2c(c1)OCO2 (stereo not given)
  RP-LC retention time: 695 s

## COc1ccc2c(CCNC(=O)c3cc(OC)c(OC)c(OC)c3)c[nH]c2c1
  RP-LC retention time: 758 s

## COc1ccc(Cl)cc1NC(=O)NCC(c1cccnc1)c1c[nH]c2ccccc12 (stereo not given)
  RP-LC retention time: 728 s

## COc1ccccc1NC(=O)C1CCCN(S(=O)(=O)c2cc(-c3noc(C)n3)cs2)C1 (stereo not given)
  RP-LC retention time: 964 s

## CN(C)C(=O)c1cc2c(s1)CCC(C(=O)Nc1ccccc1)C2 (stereo not given)
  RP-LC retention time: 772 s

## Cc1ccccc1C(=O)NCCc1cn(CC(C)C)c2ncccc12
  RP-LC retention time: 808 s

## CCc1ccc(CNC(=O)C2CCCN(c3ncnc4c3oc3ccccc34)C2)cc1 (stereo not given)
  RP-LC retention time: 871 s

## Cc1cc(NC(=O)Cc2cc(-c3ccccc3F)on2)no1
  RP-LC retention time: 772 s

## CCN(Cc1ccccc1)C(=O)c1c(C)sc2ccn(CC)c(=O)c12
  RP-LC retention time: 754 s

## O=C(c1cccnc1)C1Cc2ccccc2C1=O (stereo not given)
  RP-LC retention time: 884 s

## COc1ccc(NC(=O)NC(C)C(=O)N2CCc3ccccc32)c(OC)c1 (stereo not given)
  RP-LC retention time: 859 s

## Cc1ccn2c(NC(=O)C3CCCCC3)c(-c3ccc(F)cc3)nc2c1
  RP-LC retention time: 657 s

## Cc1noc(C)c1Cc1ccc(C(=O)N2CCCC(c3[nH]ccc3C(N)=O)C2)o1 (stereo not given)
  RP-LC retention time: 649 s

## COc1ccc(-c2cc(N3CCN(C(=O)c4ccc(Br)o4)CC3)ncn2)cc1
  RP-LC retention time: 591 s

## Cn1nnnc1C1CCCN(S(=O)(=O)Cc2ccccc2F)C1 (stereo not given)
  RP-LC retention time: 757 s

## N#CCCN(C(=O)c1noc2c1CCCC2)c1ccccc1
  RP-LC retention time: 827 s

## COc1ccc(Nc2c(-c3ccc(OC)c(OC)c3)nc3cnccn23)cc1
  RP-LC retention time: 730 s

## Cc1ccccc1NC(=O)c1sc(-c2cn(C)c3ncccc23)nc1C
  RP-LC retention time: 890 s

## Cc1ccc2c(Nc3cccc(C(C)C)c3)c(C(=O)N3CCCCC3C)cnc2n1 (stereo not given)
  RP-LC retention time: 720 s

## O=C(C1CCCO1)N1CCC(Cc2nncn2CC2CC2)CC1 (stereo not given)
  RP-LC retention time: 578 s

## CCCNC(=O)c1nc2cc(C)c(C)cc2[nH]c1=O
  RP-LC retention time: 671 s

## Cc1ccc(NC(=O)CSCC(=O)N2CCC(C(N)=O)CC2)cc1
  RP-LC retention time: 630 s

## COc1ccc(CNC(=O)NCC2(CO)CC2)cc1OC
  RP-LC retention time: 590 s

## Cc1nc(-c2cccc(F)c2)sc1CCNC(=O)Nc1ccc2c(c1)OCO2
  RP-LC retention time: 817 s

## CC(=O)N1CCc2cc(N3CC(C(=O)Nc4ccc5c(c4)OCCO5)CC3=O)ccc21 (stereo not given)
  RP-LC retention time: 667 s

## Cc1noc(-c2nc(-c3ccccc3F)no2)n1
  RP-LC retention time: 990 s

## O=C(c1ccccc1F)N1CCC(c2nc(-c3ccccc3)no2)C1 (stereo not given)
  RP-LC retention time: 911 s

## CCN1CCN(C(=O)C2CCN(S(=O)(=O)c3ccc4c(c3)sc(=O)n4CC)CC2)CC1
  RP-LC retention time: 602 s

## CCOc1ccc(CNC(=O)COc2nc(CC)nc3oc(C)c(C)c23)cc1
  RP-LC retention time: 993 s

## COc1ccc(-c2noc(-c3ccc(NCc4ccc(C)o4)nc3)n2)cc1
  RP-LC retention time: 1150 s

## Cc1ccc(NC(=O)CN2C(=O)C3CCCCN3c3ccc(S(=O)(=O)N(C)C)cc32)c(C)c1 (stereo not given)
  RP-LC retention time: 994 s

## O=C(Nc1cccc(Br)c1)N1CCC(N2CCN(Cc3ccccc3)C2=O)CC1
  RP-LC retention time: 847 s

## CCN1c2ccccc2C(=O)NC12CCN(C(=O)Cc1ccc(OC)cc1)CC2
  RP-LC retention time: 805 s

## COc1cccc(OCC(O)CN2CCN(c3ccccc3)CC2)c1 (stereo not given)
  RP-LC retention time: 727 s

## Cc1ccc(CNC(=O)CSCc2nc3cccnc3n2C2CCCCC2)o1
  RP-LC retention time: 877 s

## Cc1ccccc1CN1N=C(C(=O)N2CCC(C)CC2)S(=O)(=O)c2ccccc21
  RP-LC retention time: 1050 s

## Cc1cccc(CNS(=O)(=O)c2c(C)sc(C)c2-c2n[nH]c(C)c2C)c1
  RP-LC retention time: 1070 s

## CCCS(=O)(=O)N1CC(F)(F)C[C@H]1c1nc(-c2cccnc2)no1
  RP-LC retention time: 802 s

## COc1ccccc1-c1nc(-c2ccc(S(=O)(=O)N3CCC(C(=O)N4CCCC4)CC3)cc2)no1
  RP-LC retention time: 952 s

## Cc1ccccc1NC(=O)NCC1CCOCC1
  RP-LC retention time: 658 s

## CCCNC(=O)N1CCc2cc(-c3ccc(C(=O)N4CCOCC4)cc3)ccc21
  RP-LC retention time: 732 s

## CCc1ccc(-c2noc(Cn3c(=O)n(Cc4ccccc4)c(=O)c4sccc43)n2)cc1
  RP-LC retention time: 1210 s

## O=C(NC1CCCC1)N1c2ccccc2CC1c1nc(C2CC2)no1 (stereo not given)
  RP-LC retention time: 972 s

## O=C(OCc1ccccc1)c1nc2ccccc2nc1N1CCN(c2ccccn2)CC1
  RP-LC retention time: 798 s

## CO/N=C(\C(=O)N[C@@H]1C(=O)N2C(C(=O)OCOC(=O)C(C)(C)C)=C(/C=C\c3scnc3C)CS[C@H]12)c1csc(N)n1
  RP-LC retention time: 792 s

## CC1(C(=O)NCc2ccc(F)cc2)Cn2cnc(C(=O)N3CCOCC3)c2C(=O)N1C1CC1 (stereo not given)
  RP-LC retention time: 616 s

## CC1CCCN(CC2CCN(S(=O)(=O)CCc3ccccc3)CC2)C1 (stereo not given)
  RP-LC retention time: 677 s

## COc1cccc(NC(=O)N2CCC3(CC2)N=C(c2ccc(Cl)cc2)C(=O)N3)c1
  RP-LC retention time: 870 s

## O=C1COc2cc(S(=O)(=O)N3CCCC3C(=O)Nc3ccccc3)c(Cl)cc2N1 (stereo not given)
  RP-LC retention time: 768 s

## CNC(=O)c1cc2c(C)nn(-c3cccc(F)c3)c2s1
  RP-LC retention time: 865 s

## Cc1ccnc(N2CCCC(C(=O)NCc3ccc4c(c3)OCO4)C2)n1 (stereo not given)
  RP-LC retention time: 692 s

## CCCN(C)c1nccn2c(=O)n(CC(=O)Nc3ccc(F)cc3F)nc12
  RP-LC retention time: 673 s

## Cc1c(S(=O)(=O)N2CCCC(C)C2)c(C)n(C)c1C(=O)Nc1cccc(F)c1 (stereo not given)
  RP-LC retention time: 1100 s

## CCOC(=O)C1CCN(C(=O)C2CCN(c3nnc(-c4ccc(C)cc4)o3)CC2)CC1
  RP-LC retention time: 842 s

## CSc1ccc(NS(=O)(=O)c2cc3c(s2)CCN(C(=O)C2CC2)C3)cc1
  RP-LC retention time: 856 s

Reference: the METLIN SMRT retention time set (Domingo-Almenara et al. 2019)
